Test results published in patent US9873680B2 (Gilead Sciences, Inc., priority 2014, dated 2018).
Like-named read-outs stand apart in the source and are kept apart here.

Legend:
[1] = Test B: Cytotoxicity Assay; type: cell-based; conditions: human, uninfected MT-4 cells, CellTiter-Glo
Description: Test B: Cytotoxicity Assay Compound cytotoxicity and the corresponding CC50 values was determined using the same protocol as described in the antiviral assay (Test A) except that uninfected cells were used.

HIV-IIIb = assay: Test A: Antiviral Assay in MT4 Cells; type: cell-based, HIV-1; conditions: read-out: % inhibition at 0.2 μM (percent inhibition of virus-induced cell killing)
Method in brief: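 Readout was CellTiter-Glo luminescence after 10 min room-temperature lysis, taken 5 days after plating at 37 °C. The 2000 MT-4 cells per well, mixed 1 h beforehand with HIV-IIIb (m.o.i. 0.003), went straight onto the diluted compound.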

[2] = Human immunodeficiency virus 1, IIIB, MT4, 120 h
[3] = Human immunodeficiency virus 1, MT4, 120 h, 0.2 μM drug concentration, MT-4 cells infected with HIV-IIIb, 5 days, values normalized to 100%, average over time

SMILES	CC50 at 5 days [1] [µM]	inhibition at 0.2 µM (HIV-IIIb; [2]) [%]	inhibition at 0.2 µM (HIV-IIIb; [3]) [%]
CCN1CCO[C@](C)(C#Cc2ccc(-c3ccc(Cl)c4c(NS(C)(=O)=O)nn(C)c34)c([C@H](Cc3cc(F)cc(F)c3)NC(=O)Cn3nc(C(F)F)c4c3C(F)(F)[C@@H]3C[C@H]43)n2)C1 [Compound 85, N—((S)-1-(3-(4-chloro-1-methyl-3-(methylsulfonamido)-1H-indazol-7-yl)-6-(((R)-4-ethyl-2-methylmorpholin-2-yl)ethynyl)pyridin-2-yl)-2-(3,5-difluorophenyl)ethyl)-2-((3bS,4aR)-3-(difluoromethyl)-5,5-difluoro-3b,4,4a,5-tetrahydro-1-cyclopropa[3,4]cyclopenta[1,2-c]pyrazol-1-yl)acetamide]	28.6	100	
Cn1nc(NS(C)(=O)=O)c2c(Cl)ccc(-c3ccc(C#CC4(O)CC(F)(F)C4)nc3[C@H](Cc3cccc(F)c3)NC(=O)Cn3nc(C(F)(F)F)c4c3C(F)(F)[C@@H]3C[C@H]43)c21 [Compound 102, N—((S)-1-(3-(4-chloro-1-methyl-3-(methylsulfonamido)-1H-indazol-7-yl)-6-((3,3-difluoro-1-hydroxycyclobutyl)ethynyl)pyridin-2-yl)-2-(3-fluorophenyl)ethyl)-2-((3bS,4aR)-5,5-difluoro-3-(trifluoromethyl)-3b,4,4a,5-tetrahydro-1H-cyclopropa[3,4]cyclopenta[1,2-c]pyrazol-1-yl)acetamide]	7.17		88
Cn1nc(O)c2c(Cl)ccc(-c3ccc(C#CC4(O)CCOCC4)nc3[C@H](Cc3cc(F)cc(F)c3)NC(=O)Cn3nc(C(F)F)c4c3C(F)(F)[C@@H]3C[C@H]43)c21 [Compound 109E, N—((S)-1-(3-(4-chloro-3-hydroxy-1-methyl-1H-indazol-7-yl)-6-((4-hydroxytetrahydro-2H-pyran-4-yl)ethynyl)pyridin-2-yl)-2-(3,5-difluorophenyl)ethyl)-2-((3bS,4aR)-3-(difluoromethyl)-5,5-difluoro-3b,4,4a,5-tetrahydro-1H-cyclopropa[3,4]cyclopenta[1,2-c]pyrazol-1-yl)acetamide]	22.3		100
Cn1nc(NS(C)(=O)=O)c2c(Cl)ccc(-c3ccc(C#CC4(O)CC5(COC5)C4)nc3[C@H](Cc3cc(F)cc(F)c3)NC(=O)Cn3nc(C(F)(F)F)c4c3C(F)(F)[C@@H]3C[C@H]43)c21 [Compound 51B, N—((S)-1-(3-(4-chloro-1-methyl-3-(methylsulfonamido)-1H-indazol-7-yl)-6-((6-hydroxy-2-oxaspiro[3.3]heptan-6-yl)ethynyl)pyridin-2-yl)-2-(3,5-difluorophenyl)ethyl)-2-((3bS,4aR)-5,5-difluoro-3-(trifluoromethyl)-3b,4,4a,5-tetrahydro-1H-cyclopropa[3,4]cyclopenta[1,2-c]pyrazol-1-yl)acetamide]	19.8		89
Cn1nc(NS(C)(=O)=O)c2c(Cl)ccc(-c3ccc(C#CC(C)(C)c4ncc[nH]4)nc3[C@H](Cc3cc(F)cc(F)c3)NC(=O)Cn3nc(C(F)F)c4c3C(F)(F)[C@@H]3C[C@H]43)c21 [Compound 91F, N—((S)-1-(6-(3-(1H-imidazol-2-yl)-3-methylbut-1-yn-1-yl)-3-(4-chloro-1-methyl-3-(methylsulfonamido)-1H-indazol-7-yl)pyridin-2-yl)-2-(3,5-difluorophenyl)ethyl)-2-((3bS,4aR)-3-(difluoromethyl)-5,5-difluoro-3b,4,4a,5-tetrahydro-1H-cyclopropa[3,4]cyclopenta[1,2-c]pyrazol-1-yl)acetamide]	14.6		98
Cn1nc(NS(C)(=O)=O)c2c(Cl)ccc(-c3ccc(-c4cnn(C5COC5)c4)nc3[C@H](Cc3cc(F)cc(F)c3)NC(=O)Cn3nc(C(F)(F)F)c4c3C(F)(F)[C@@H]3C[C@H]43)c21 [Compound 72, N—((S)-1-(3-(4-chloro-1-methyl-3-(methylsulfonamido)-1H-indazol-7-yl)-6-(1-(oxetan-3-yl)-1H-pyrazol-4-yl)pyridin-2-yl)-2-(3,5-difluorophenyl)ethyl)-2-((3bS,4aR)-5,5-difluoro-3-(trifluoromethyl)-3b,4,4a,5-tetrahydro-1H-cyclopropa[3,4]cyclopenta[1,2-c]pyrazol-1-yl)acetamide]	50.3		93
Cn1nc(NS(C)(=O)=O)c2c(Cl)ccc(-c3ccc(C#CC(C)(C)N4CCOC4=O)nc3[C@H](Cc3cc(F)cc(F)c3)NC(=O)Cn3nc(C(F)F)c4c3C(F)(F)[C@@H]3C[C@H]43)c21 [Compound 60D, N—((S)-1-(3-(4-chloro-1-methyl-3-(methylsulfonamido)-1H-indazol-7-yl)-6-(3-methyl-3-(2-oxooxazolidin-3-yl)but-1-yn-1-yl)pyridin-2-yl)-2-(3,5-difluorophenyl)ethyl)-2-((3bS,4aR)-3-(difluoromethyl)-5,5-difluoro-3b,4,4a,5-tetrahydro-1H-cyclopropa[3,4]cyclopenta[1,2-c]pyrazol-1-yl)acetamide]	> 27.8	94	
Cn1nc(NS(C)(=O)=O)c2c(Cl)ccc(-c3ccc(C#C[C@]4(C)CNCCO4)nc3[C@H](Cc3cc(F)cc(F)c3)NC(=O)Cn3nc(C(F)(F)F)c4c3C(F)(F)[C@@H]3C[C@H]43)c21 [Compound 83G, N—((S)-1-(3-(4-chloro-1-methyl-3-(methylsulfonamido)-1H-indazol-7-yl)-6-(((R)-2-methylmorpholin-2-yl)ethynyl)pyridin-2-yl)-2-(3,5-difluorophenyl)ethyl)-2-((3bS,4aR)-5,5-difluoro-3-(trifluoromethyl)-3b,4,4a,5-tetrahydro-1H-cyclopropa[3,4]cyclopenta[1,2-c]pyrazol-1-yl)acetamide]	6.57		90
CC(=O)N1CCO[C@](C)(C#Cc2ccc(-c3ccc(Cl)c4c(NS(C)(=O)=O)nn(C)c34)c([C@H](Cc3cc(F)cc(F)c3)NC(=O)Cn3nc(C(F)F)c4c3C(F)(F)[C@@H]3C[C@H]43)n2)C1 [Compound 86, N—((S)-1-(6-(((R)-4-acetyl-2-methylmorpholin-2-yl)ethynyl)-3-(4-chloro-1-methyl-3-(methylsulfonamido)-1H-indazol-7-yl)pyridin-2-yl)-2-(3,5-difluorophenyl)ethyl)-2-((3bS,4aR)-3-(difluoromethyl)-5,5-difluoro-3b,4,4a,5-tetrahydro-1H-cyclopropa[3,4]cyclopenta[1,2-c]pyrazol-1-yl)acetamide]	21.4	93	
Cc1nccn1C(C)(C)C#Cc1ccc(-c2ccc(Cl)c3c(NS(C)(=O)=O)nn(C)c23)c([C@H](Cc2cc(F)cc(F)c2)NC(=O)Cn2nc(C(F)(F)F)c3c2C(F)(F)[C@@H]2C[C@H]32)n1 [Compound 90, N—((S)-1-(3-(4-chloro-1-methyl-3-(methylsulfonamido)-1H-indazol-7-yl)-6-(3-methyl-3-(2-methyl-1H-imidazol-1-yl)but-1-yn-1-yl)pyridin-2-yl)-2-(3,5-difluorophenyl)ethyl)-2-((3bS,4aR)-5,5-difluoro-3-(trifluoromethyl)-3b,4,4a,5-tetrahydro-1H-cyclopropa[3,4]cyclopenta[1,2-c]pyrazol-1-yl)acetamide]	3.04		98
Cn1nc(NS(C)(=O)=O)c2c(Cl)ccc(-c3ccc(C#CC(C)(C)n4ccnc4)nc3[C@H](Cc3cc(F)cc(F)c3)NC(=O)Cn3nc(C(F)(F)F)c4c3C(F)(F)[C@@H]3C[C@H]43)c21 [Compound 79B, N—((S)-1-(6-(3-(1H-imidazol-1-yl)-3-methylbut-1-yn-1-yl)-3-(4-chloro-1-methyl-3-(methylsulfonamido)-1H-indazol-7-yl)pyridin-2-yl)-2-(3,5-difluorophenyl)ethyl)-2-((3bS,4aR)-5,5-difluoro-3-(trifluoromethyl)-3b,4,4a,5-tetrahydro-1H-cyclopropa[3,4]cyclopenta[1,2-c]pyrazol-1-yl)acetamide]	11.5		93
Cn1nc(NS(C)(=O)=O)c2cccc(-c3ccc(C#CC4(O)CCOC4)nc3[C@H](Cc3cc(F)cc(F)c3)NC(=O)Cn3nc(C(F)(F)F)c4c3C(F)(F)[C@@H]3C[C@H]43)c21 (stereo partly drawn) [Compound 30B, 2-((3bS,4aR)-5,5-difluoro-3-(trifluoromethyl)-3b,4,4a,5-tetrahydro-1H-cyclopropa[3,4]cyclopenta[1,2-c]pyrazol-1-yl)-N-((1S)-2-(3,5-difluorophenyl)-1-(6-((3-hydroxytetrahydrofuran-3-yl)ethynyl)-3-(1-methyl-3-(methylsulfonamido)-1H-indazol-7-yl)pyridin-2-yl)ethyl)acetamide]	19.5		100
CN1CCC(O)(C#Cc2ccc(-c3cccc4c(NS(C)(=O)=O)nn(C)c34)c([C@H](Cc3cc(F)cc(F)c3)NC(=O)Cn3nc(C(F)(F)F)c4c3C(F)(F)[C@@H]3C[C@H]43)n2)CC1 [Compound 31, 2-((3bS,4aR)-5,5-difluoro-3-(trifluoromethyl)-3b,4,4a,5-tetrahydro-1H-cyclopropa[3,4]cyclopenta[1,2-c]pyrazol-1-yl)-N—((S)-2-(3,5-difluorophenyl)-1-(6-((4-hydroxy-1-methylpiperidin-4-yl)ethynyl)-3-(1-methyl-3-(methylsulfonamido)-1H-indazol-7-yl)pyridin-2-yl)ethyl)acetamide]	20.2		93
NC(=O)c1cc(-c2ccc(C#CC3(O)CC(F)(F)C3)nc2[C@H](Cc2cc(F)cc(F)c2)NC(=O)Cn2nc(C(F)F)c3c2C(F)(F)[C@@H]2C[C@H]32)ccc1F [Compound 106C, 5-(6-((3,3-difluoro-1-hydroxycyclobutyl)ethynyl)-2-((S)-1-(2-((3bS,4aR)-3-(difluoromethyl)-5,5-difluoro-3b,4,4a,5-tetrahydro-1H-cyclopropa[3,4]cyclopenta[1,2-c]pyrazol-1-yl)acetamido)-2-(3,5-difluorophenyl)ethyl)pyridin-3-yl)-2-fluorobenzamide]	2.85		100
